Tests used:
[1] = Apoptosis assay (annexin V-FITC/propidium iodide flow cytometry); settings: human
Description: FIGS. (7A1–7A3), (7B1–7B2), (7C1–7C3), (7D1–7D2), (7E1–7E3), (7F1–7F2). […] Cells were grown in serum-free medium overnight in T-25 flasks and treated with tempol (10 mM) or tempo (10 mM) for various times, trypsinized, and then resuspended in 200 ul 1× binding buffer as described in experimental procedures. The cell suspension was double-stained with annexin V-FITC and propidium iodide and analyzed by flow cytometry. Background signal was determined by comparison with double-stained, single-stained, or unstained control cells. (7A1–7A3), (7C1–7C3), and (7E1–7E3) are cytograms showing a relative distribution of viable (V), apoptotic (A), and necrotic (N) cells at 2 h following tempol or tempo treatment of MDA-MB 231 cells (A), PCI-04A cells (C), and PC-3 cells (E). (7B1–7B3), (7D1–7D2), and (7F1–7F2) are time course analyses of MDA-MB 231 cells (B), PCT-04A cells (D), and PC-3 cells (F). 100,000 cells were analyzed at each time point in triplicate (B) or quadruplicate (D and F). Solid bars, 1% ethanol, striped bars, 10 mM tempol, empty bars, 10 mM tempo. […] Data shown are representative from three to four independent experiments. (7B1–7B2), Time course analysis of MDA-MB 231 cells undergoing apoptosis (annexin V-FITC staining) (7B1), or necrosis (propidium iodide staining) (7B2). Values shown are mean±s.d. of triplicate determinations per time point in each treatment category, and representative of three to four independent experiments. […] (7D1–7D2), Time course analysis of PCI-04A cells undergoing apoptosis (annexin V-FITC staining) (7D1), or necrosis (propidium iodide staining) (7D2). Values shown are mean±s.d. of quadruplicate determinations per time point in each treatment category. […] (7F1–7F2), Time course analysis of PC-3 cells undergoing apoptosis (annexin V-FITC staining) (7F1), or necrosis (propidium iodide staining) (7F2). Values shown are mean±s.d. of quadruplicate determinations per time point in each treatment category. Control/C, cells treated with 1% ethanol for 2 h.
Apoptosis Assay—ApoAlert Annexin V apoptosis detection system (Clontech Lab Inc., Palo Alto, Calif.) was used to measure the relative distribution of apoptotic and necrotic cells. Briefly, cells were seeded at a density of 1×10^6 cells per 25 cm^2 tissue culture flask in medium containing 10% FBS overnight, followed by washing twice in serum-free medium. Cells were maintained overnight in serum-free medium and exposed to tempol (10 mM) or tempo (10 mM) for various times. This was followed by rinsing twice with serum-free medium prior to trypsinization, dilution in two volumes of serum-free medium, and centrifugation at 10,000× g. The cell pellet was washed once with PBS and resuspended in 200 ul of 1× binding buffer. The cell suspension was double-labeled with fluorescein isothiocyanate (FITC)-labeled annexin V (10 ul) and propidium iodide (PI) (10 ul) according to the manufacturer's instructions. Unlabeled cells or untreated cells labeled with either FITC-annexin V or PI, or double-labeled served as internal controls for the background signal. The intensity of the dye uptake by cells was detected using FACStar plus Flow Cytometer (Becton Dickerson, Lincoln Park, N.J.), and data were analyzed using Reproman True Facts software (Seattle, Wash.). Viable cells were FITC−/PI−, apoptotic cells were FITC+/PI−, and necrotic cells were FITC+/PI+.

[2] = system: bovine aortic endothelial cells; experiment: Apoptotic cell death by bisbenzamide trihydrochloride/Hoechst-33258 staining; format: cell-based; settings: 5 mM
[3] = system: DU145 cells; experiment: Annexin V apoptosis in prostate cancer cells (5% BCS); format: cell-based, human; settings: 2.5 mM, 24 hr
Description: (§1) Cells were grown overnight in medium containing 10% BCS in T-25 flasks, switched to medium containing 5% BCS and treated with tempo. Following treatment, cells were washed, trypsinized, and resuspended in […] of 1× binding buffer as described before. […] (9A1–9A3): Cytograms of untreated (9A1); 0.1% ethanol-treated (24 hr) (9A2); and tempo-treated DU145 cells (2.5 mM, 24 hr) (9A3). […] (9B1–9B2), (9C1–9C2), (9D1–9D2): apoptosis (9B1, 9C1, 9D1) and necrosis (9B2, 9C2, […]) in cells treated with tempo (B, 2.5 mM; C, 24 hr; D, doses and times as indicated). Values shown are mean q S.D. of triplicate determination per point in each treatment category.
(§2) To investigate tempo's effect on prostate cancer cells, human androgen-independent prostate cancer-derived cell lines (DU145 and PC3) were grown to near confluence in 75 cm^2-tissue flasks in Improved Minimum Essential Medium (IMEM) (Cellgro) containing 10% bovine calf serum (BCS) supplemented with 2 mM L-glutamine and 200 IU/ml penicillin and streptomycin mixture in a humidified atmosphere of 5% CO2:95% air at 37° C. Human androgen-dependent prostate cancer-derived cell line (LNCaP) was cultured in RPMI 1640 medium containing 10% BCS and 2 mM L-glutamine. Cells were trypsinized and seeded in equal numbers overnight in 150 mm^2 tissue culture dishes (two dishes per flask) or 25 cm^2 flasks (1×10^6 cells per flask). Cells were treated in medium containing 5% BCS with desired concentration of tempo for various times. Tempo was dissolved in ethanol (0.1%) before use. Control cultures were treated with ethanol (0.1%) for various times. Following treatment, cells were washed 3 times with PBS. […] In LNCaP cells, a relatively higher level of apoptosis was observed (1 mM tempo, 24 hr, approximately 12-fold; 5 mM, 4 hr, approximately 15-fold) (FIGS. 9A1, 9A2, 9A3, 9B1, 9B2, 9C1, 9C2, 9D1, 9D2).

[4] = system: LNCaP cells; experiment: as above; format: cell-based, human
Description: as §1, §2

[5] = system: PC-3 cells; experiment: as above; format: cell-based, human; settings: 2.5 mM, 24 hr
Description: as §1, §2

[6] = Tolerated dose in mice

| SMILES | viability at 2 h, 10 mM [1] [%] | apoptotic cell death ([2]; 4 h) [%] | apoptotic cell death ([2]; 8 h) [%] | increase in the number of apoptotic cells [3] | level of apoptosis (increase) ([4]; 1 mM, 24 hr) | level of apoptosis (increase) ([4]; 5 mM, 4 hr) | increase in the number of apoptotic cells [5] [fold] | intratumoral tolerance [6] |
| --- | --- | --- | --- | --- | --- | --- | --- | --- |
| CC1(C)CC(O)CC(C)(C)N1[O] [tempol, 4-hydroxy-tempo, reference compound] | 92.3 |  |  |  |  |  |  |  |
| CC1(C)CCCC(C)(C)N1[O] [tempo, 2,2,6,6-tetramethylpiperidine-N-oxyl] |  | 3.97±0.33 | 38.85±1.69 | approximately 3.4 fold | approximately 12 fold | approximately 15 fold | ~6.7 | over 200 mg/kg |

Source: patent publication US7074807B2, “Compositions and methods for inducing cell death” (Georgetown University, priority 1998, dated 2006)
